Data as given in patent US10738028B2, “Spiro three-membered ring, spiro five-membered ring peptide deformylase inhibitor and use thereof in antibacteria and anti-tumor” (priority 2016, dated 2020).

How the values were obtained:
Type in all cases: cell-based
[1] = tested on: HCT-116 colorectal cancer cell line; test: CCK-8 proliferation inhibition; conditions: Homo sapiens, HCT-116, 72 h, concentration of 30 μM; 72 hours; CCK-8; read-out: HCT116 inhibition rate/%
Procedure, shortened: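 Growth inhibition is read by CCK-8 (1:10 dilution) after 72 h of compound exposure. HCT-116 cells grow in McCoy's 5A containing 10% newborn bovine serum at 2000 cells/well, with 1‰ DMSO as vehicle control.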

[2] = tested on: methicillin-resistant Staphylococcus aureus (MRSA); test: MIC, two-fold agar dilution (CLSI), clinical isolates
Procedure, shortened: (§1)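 Following the American Clinical and Laboratory Standards Institute procedure, agar two-fold dilution served to determine minimum inhibitory concentrations.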

[3] = tested on: methicillin-resistant Staphylococcus epidermidis (MRSE); test: as above
Procedure, shortened: as §1

[4] = tested on: Escherichia coli (including ESBLs, non-ESBLs); test: as above
Procedure, shortened: as §1

[5] = tested on: Moraxella catarrhalis (BCA); test: as above
Procedure, shortened: as §1

[6] = tested on: methicillin-sensitive Staphylococcus aureus (MSSA); test: as above
Procedure, shortened: as §1

[7] = tested on: methicillin-sensitive Staphylococcus epidermidis (MSSE); test: as above
Procedure, shortened: as §1

[8] = tested on: Streptococcus pneoumoniae (SPN); test: as above
Procedure, shortened: as §1

[9] = tested on: Enterococcus faecalis (EFA); test: as above
Procedure, shortened: as §1

[10] = tested on: Enterococcus faecium (EFM); test: as above
Procedure, shortened: as §1

## CCCC[C@H](CC(=O)NO)C(=O)N1CC2(CC2)C[C@H]1C(=O)Nc1cnccn1 [Example 44]
[1]
  inhibition at 30 µM: 21%
[2]; clinical isolate MRSA 15-1
  Anti-bacterial activity (MIC), strain MRSA 15-1: 0.5 µg/mL
[2]; clinical isolate MRSA 15-2
  Anti-bacterial activity (MIC), strain MRSA 15-2: 1 µg/mL
[2]; clinical isolate MRSA 15-3
  Anti-bacterial activity (MIC), strain MRSA 15-3: 1 µg/mL
[2]; clinical isolate MRSA 15-4
  Anti-bacterial activity (MIC), strain MRSA 15-4: 1 µg/mL
[3]; clinical isolate MRSE 15-1
  Anti-bacterial activity (MIC), strain MRSE 15-1: 1 µg/mL
[3]; clinical isolate MRSE 15-2
  Anti-bacterial activity (MIC), strain MRSE 15-2: 1 µg/mL
[3]; clinical isolate MRSE 15-3
  Anti-bacterial activity (MIC), strain MRSE 15-3: 1 µg/mL
[3]; clinical isolate MRSE 15-7
  Anti-bacterial activity (MIC), strain MRSE 15-7: 1 µg/mL
[4]; clinical isolate ECO+ 15-1
  Anti-bacterial activity (MIC), strain ECO+ 15-1: 32 µg/mL
[4]; clinical isolate ECO+ 15-2
  Anti-bacterial activity (MIC), strain ECO+ 15-2: > 32 µg/mL
[4]; clinical isolate ECO+ 15-3
  Anti-bacterial activity (MIC), strain ECO+ 15-3: > 32 µg/mL
[4]; clinical isolate ECO+ 15-4
  Anti-bacterial activity (MIC), strain ECO+ 15-4: 1 µg/mL
[4]; clinical isolate ECO− 15-1
  Anti-bacterial activity (MIC), strain ECO− 15-1: 32 µg/mL
[4]; clinical isolate ECO− 15-2
  Anti-bacterial activity (MIC), strain ECO− 15-2: > 32 µg/mL
[4]; clinical isolate ECO− 15-3
  Anti-bacterial activity (MIC), strain ECO− 15-3: > 32 µg/mL
[4]; clinical isolate ECO− 15-4
  Anti-bacterial activity (MIC), strain ECO− 15-4: > 32 µg/mL
[5]; clinical isolate BCA 14-1
  Anti-bacterial activity (MIC), strain BCA 14-1: 4 µg/mL
[5]; clinical isolate BCA 14-4
  Anti-bacterial activity (MIC), strain BCA 14-4: 4 µg/mL
[5]; clinical isolate BCA 14-5
  Anti-bacterial activity (MIC), strain BCA 14-5: 1 µg/mL
[5]; clinical isolate BCA 14-6
  Anti-bacterial activity (MIC), strain BCA 14-6: 2 µg/mL
[5]; clinical isolate BCA 14-7
  Anti-bacterial activity (MIC), strain BCA 14-7: 4 µg/mL
[5]; clinical isolate BCA 14-8
  Anti-bacterial activity (MIC), strain BCA 14-8: 4 µg/mL
[5]; clinical isolate BCA 14-10
  Anti-bacterial activity (MIC), strain BCA 14-10: 2 µg/mL
[6]; clinical isolate MSSA 15-3
  Anti-bacterial activity (MIC), strain MSSA 15-3: 0.5 µg/mL
[6]; clinical isolate MSSA 15-4
  Anti-bacterial activity (MIC), strain MSSA 15-4: 1 µg/mL
[6]; clinical isolate MSSA 15-5
  Anti-bacterial activity (MIC), strain MSSA 15-5: 1 µg/mL
[6]; clinical isolate MSSA 15-6
  Anti-bacterial activity (MIC), strain MSSA 15-6: > 32 µg/mL
[7]; clinical isolate MSSE 15-3
  Anti-bacterial activity (MIC), strain MSSE 15-3: 1 µg/mL
[7]; clinical isolate MSSE 15-4
  Anti-bacterial activity (MIC), strain MSSE 15-4: 1 µg/mL
[7]; clinical isolate MSSE 15-5
  Anti-bacterial activity (MIC), strain MSSE 15-5: 1 µg/mL
[7]; clinical isolate MSSE 15-6
  Anti-bacterial activity (MIC), strain MSSE 15-6: 1 µg/mL
[8]; clinical isolate SPN 16-2
  Anti-bacterial activity (MIC), strain SPN 16-2: 1 µg/mL
[8]; clinical isolate SPN 16-4
  Anti-bacterial activity (MIC), strain SPN 16-4: 1 µg/mL
[9]; clinical isolate EFA 15-1
  Anti-bacterial activity (MIC), strain EFA 15-1: > 32 µg/mL
[9]; clinical isolate EFA 15-2
  Anti-bacterial activity (MIC), strain EFA 15-2: > 32 µg/mL
[9]; clinical isolate EFA 15-3
  Anti-bacterial activity (MIC), strain EFA 15-3: > 32 µg/mL
[9]; clinical isolate EFA 15-4
  Anti-bacterial activity (MIC), strain EFA 15-4: > 32 µg/mL
[9]; clinical isolate EFA 15-5
  Anti-bacterial activity (MIC), strain EFA 15-5: > 32 µg/mL
[9]; clinical isolate EFA 15-6
  Anti-bacterial activity (MIC), strain EFA 15-6: > 32 µg/mL
[9]; clinical isolate EFA 15-9
  Anti-bacterial activity (MIC), strain EFA 15-9: 32 µg/mL
[10]; clinical isolate EFM 15-1
  Anti-bacterial activity (MIC), strain EFM 15-1: > 32 µg/mL
[10]; clinical isolate EFM 15-2
  Anti-bacterial activity (MIC), strain EFM 15-2: > 32 µg/mL
[10]; clinical isolate EFM 15-3
  Anti-bacterial activity (MIC), strain EFM 15-3: > 32 µg/mL
[10]; clinical isolate EFM 15-4
  Anti-bacterial activity (MIC), strain EFM 15-4: > 32 µg/mL
[10]; clinical isolate EFM 15-5
  Anti-bacterial activity (MIC), strain EFM 15-5: 1 µg/mL
[10]; clinical isolate EFM 15-6
  Anti-bacterial activity (MIC), strain EFM 15-6: 2 µg/mL
